Q: With `CC(C)(C)OC(=O)[C@@H](C(N)c1ccccc1)[C@@H](O)C[C@@H](Cc1ccccc1)c1ncc2n1C(O)C(C)(C)C2=O` (stereo partly drawn) [Example 31, 3-[(1R,3S,4S)-1-benzyl-4-t-butoxycarbonyl-amino-3-hydroxy-5-phenylpentyl]-6,6-dimethyl-5-hydroxy-pyrrolo-[1,2-c]-imidazol-7-one] as the compound, how does the melting point read?
A: Its melting point is 88 to 90 °C.
